We go through 19 molecules from patent publication US4820834A, “Benzodiazepine analogs” (priority 1987, dated 1989).

Where two headings read alike, the source gives them in different places. Bounds are passed on as bounds.

For assay [1], the target named is T1, CCK receptor (brain, cerebral cortex) (Cavia porcellus, UniProt H0VZC5).
T1 construct: Cerebral cortex was dissected and used as a receptor source; from tissue; host or cells: guinea pig cerebral cortex membranes (male Hartley)
T1 sequence (H0VZC5 1-426): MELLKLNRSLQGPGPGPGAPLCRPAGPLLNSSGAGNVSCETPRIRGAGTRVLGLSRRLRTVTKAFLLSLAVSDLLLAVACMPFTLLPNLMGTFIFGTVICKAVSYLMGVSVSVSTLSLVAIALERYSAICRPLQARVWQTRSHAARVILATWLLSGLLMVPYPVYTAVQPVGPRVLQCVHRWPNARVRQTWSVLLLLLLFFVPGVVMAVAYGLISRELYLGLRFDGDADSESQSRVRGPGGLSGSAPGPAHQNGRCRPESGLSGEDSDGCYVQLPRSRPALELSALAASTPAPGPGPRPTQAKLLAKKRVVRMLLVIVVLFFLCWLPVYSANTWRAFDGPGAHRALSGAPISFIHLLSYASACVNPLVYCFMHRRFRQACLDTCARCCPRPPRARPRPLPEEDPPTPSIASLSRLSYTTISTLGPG
The assay can be described thus: biochemical. The format is binding, Male Hartley guinea pigs. As to conditions: guinea pig cerebral cortex, ^125 I-CCK-33, 25° C., 2 hours. A digest of the protocol: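 Guinea pig cerebral cortex homogenate as receptor source, with radiolabeled CCK-33 in HEPES buffer containing MgCl2, bacitracin, EGTA and 0.4% BSA. Incubation 2 h at 25°C; bound ligand pelleted by centrifugation and gamma-counted.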

The next assay concerns the target T2, CCK receptor (pancreas) (Rattus norvegicus, UniProt P30551).
T2 construct: The whole pancreas was dissected free of fat tissue and was homogenized; from tissue; host or cells: rat pancreas membranes (Sprague-Dawley)
T2 sequence (P30551 1-444): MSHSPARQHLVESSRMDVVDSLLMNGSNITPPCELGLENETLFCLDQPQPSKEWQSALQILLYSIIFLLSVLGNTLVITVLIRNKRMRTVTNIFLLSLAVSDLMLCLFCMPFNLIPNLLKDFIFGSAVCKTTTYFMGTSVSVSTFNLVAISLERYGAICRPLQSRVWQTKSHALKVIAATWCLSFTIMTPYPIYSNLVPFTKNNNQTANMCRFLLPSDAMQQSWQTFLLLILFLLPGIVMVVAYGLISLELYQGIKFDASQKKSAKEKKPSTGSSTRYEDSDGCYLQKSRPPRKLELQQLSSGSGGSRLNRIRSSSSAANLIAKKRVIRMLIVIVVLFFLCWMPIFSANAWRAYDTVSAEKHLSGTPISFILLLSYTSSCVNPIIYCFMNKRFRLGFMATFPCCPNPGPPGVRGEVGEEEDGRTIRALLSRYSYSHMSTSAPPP
Description: CCK Receptor Binding (Pancreas): inhibition of ^125 I-CCK-33 binding. On the set-up: species or system Male Sprague-Dawley rats. The note with it: rat pancreas membranes, ^125 I-CCK-33, 37° C., 30 minutes. A digest of the protocol: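 Rat (male Sprague-Dawley) pancreatic membranes in 50 mM Tris HCl pH 7.7 with DTT, bacitracin, PMSF and o-phenanthroline; ^125I-Bolton Hunter-labelled CCK-33 as radioligand. Incubation 30 min at 37° C, separation by centrifugation, pellet gamma-counted; Scatchard analysis by diluting ^125I-CCK-33 with increasing CCK-33.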

Assay [2] deals with T3, Gastrin receptor (gastric glands) (Cavia porcellus, UniProt H0VZC5).
T3 construct: The washed guinea pig gastric glands prepared as above were resuspended; from tissue; host or cells: guinea pig gastric mucosal glands (male Hartley)
T3 sequence (H0VZC5 1-426): T1 sequence (H0VZC5 1-426)
The assay can be described thus: Gastrin Receptor Binding in Guinea Pig Gastric Glands. On the set-up: species or system guinea pig (male Hartley). As to conditions: 25° C., 30 minutes.

Where [3] appears, read: read-out: IC50 ^125 I-CCK Brain.
The mark [4] stands for this setting: read-out: IC50 ^125 I-CCK Pancreas.
Where [5] appears, read: ^125 I-gastrin, read-out: IC50 ^125 I-Gastrin Gastric Glands.
[6] abbreviates: IC50 ^125 I-Gastrin Gastric Glands.

The term IC50 denotes the concentration needed to halve the response being measured. Take `CN1C(=O)[C@@H](NC(=O)C2CCCCC2)N=C(c2ccccc2)c2ccccc21` [Example 191, (S)-N-(2,3-Dihydro-1-methyl-2-oxo-5-phenyl-1H-1,4-benzodiazepin-3-yl)-cyclohexanecarboxamide]: the results for the IC50 (in assay [1] (setting [3]); on CCK receptor (pancreas) (setting [4]); in assay [2] (setting [5])) were more than 100000 nM, 800 nM and more than 100000 nM, respectively.
Regarding `CN1C(=O)[C@@H](NC(=O)C(C)(C)C)N=C(c2ccccc2)c2ccccc21` [Example 193, (S)-N-(2,3-Dihydro-1-methyl-2-oxo-5-phenyl-1H-1,4-benzodiazepin-3-yl]-2,2-dimethylpropanamide], the IC50 in assay [1] (IC50 ^125 I-CCK Brain) is more than 100000 nM; at CCK receptor (pancreas) (setting [4]), 1600 nM; in assay [2] (setting [6]) it was 13000 nM.
`CCOC(=O)CN1C(=O)C(NC(=O)Nc2ccc(Cl)cc2)N=C(c2ccccc2F)c2ccccc21` (stereo not drawn) [Example 194, 3-((((4-Chlorophenyl)amino)carbonyl)amino)-5-(2-fluorophenyl)-2,3-dihydro-2-oxo-1H-1,4-benzodiazepin-1-acetic acid ethyl ester]: the values for the concentration for half-maximal inhibition (IC50) (in assay [1] (setting [3]); at CCK receptor (pancreas) (setting [4]); in assay [2] (setting [5])) were 1.2 nM, 220 nM and 4 nM, respectively.
On to `CCOC(=O)CN1C(=O)C(NC(=O)NC(C)c2ccccc2)N=C(c2ccccc2F)c2ccccc21` (stereo not drawn) [Example 195, 5-(2-Fluorophenyl)-2,3-dihydro-2-oxo-((((1-phenylethyl)amino)carbonyl)amino)-1H-1,4-benzodiazepine-1-acetic acid ethyl ester], for which the IC50 was more than 100 nM in assay [1] (setting [3]), 4800 nM on CCK receptor (pancreas) (IC50 ^125 I-CCK Pancreas) and 400 nM in assay [2] (setting [5]).
Turning to `CN1C(=O)C(NC(=O)c2ccc(Cl)cc2N)N=C(c2ccccc2)c2ccccc21` (stereo not drawn) [Example 196, 3-N-(2,3-Dihydro-1-methyl-2-oxo-5-phenyl-1H-1,4-benzodiazepine-3-yl)-2-amino-4-chlorobenzamide], the values for the IC50 (in assay [1] (IC50 ^125 I-CCK Brain); at CCK receptor (pancreas) (setting [4]); in assay [2] (setting [6])) were 2400 nM, 0.9 nM and 1900 nM, respectively.
Regarding `CN1C(=O)C(C(=O)Nc2ccc(Cl)cc2)N=C(c2ccccc2)c2ccccc21` (stereo not drawn) [Example 197, N-(4-Chlorphenyl)-2,3-dihydro-1-methyl-2-oxo-5-phenyl-1H-1,4-benzodiazepine-3-carboxamide], the IC50 in assay [1] (setting [3]) amounted to 5900 nM; on CCK receptor (pancreas) (IC50 ^125 I-CCK Pancreas), 1900 nM; in assay [2] (setting [5]), 10000 nM.
As to `CN1C(=O)C(Cc2cn(C)c3ccccc23)N=C(c2ccccc2)c2ccccc21` (stereo not drawn) [Example 200, 1,3-Dihydro-1-methyl-3-((1-methyl-1H-indol-3-yl)methyl)-5-phenyl-2H-1,4-benzodiazepin-2-one], the IC50 worked out at 63000 nM in assay [1] (setting [3]), 100 nM on CCK receptor (pancreas) (IC50 ^125 I-CCK Pancreas) and 67000 nM in assay [2] (setting [5]).
Consider `O=C(O)CN1C(=O)C(NC(=O)Nc2ccc(Cl)cc2)N=C(c2ccccc2)c2ccccc21` (stereo not drawn) [Example 202, 3-((((4-Chlorophenyl)amino)carbonyl)amino)-2,3-dihydro-2-oxo-5-phenyl-1H-1,4-benzodiazepine-1-acetic acid], for which the IC50 in assay [1] (setting [3]) was found to be 72 nM; on CCK receptor (pancreas) (setting [4]), 56 nM; in assay [2] (setting [5]) it was 120 nM.
As to `CN1C(=O)[C@@H](NC(=O)c2ccc(C(F)(F)F)cc2)N=C(c2ccccc2)c2ccccc21` [Example 203, (S)-N-(2,3-Dihydro-1-methyl-2-oxo-5-phenyl-1H-1,4-benzodiazepin-3-yl)-4-(trifluoromethyl)-benzamide], the IC50 worked out at 4600 nM in assay [1] (IC50 ^125 I-CCK Brain), 1.3 nM at CCK receptor (pancreas) (setting [4]) and 6200 nM in assay [2] (setting [5]).
With `CCOC(=O)CN1C(=O)C(NC(=O)Nc2ccc(Cl)cc2)N=C(c2ccccc2)c2ccccc21` (stereo not drawn) [Example 204, 3-((((4-Chlorophenyl)amino)carbonyl)amino)-2,3-dihydro-2-oxo-5-phenyl-1H-1,4-benzodiazepine-1-acetic acid ethyl ester], the IC50 in assay [1] (IC50 ^125 I-CCK Brain) was determined as 1 nM; at CCK receptor (pancreas) (setting [4]), 370 nM; in assay [2] (setting [6]), 3.3 nM.
With `CCOC(=O)CN1C(=O)C(NC(=O)NC(C)C)N=C(c2ccccc2F)c2ccccc21` (stereo not drawn) [Example 205, 5-(2-Fluorophenyl)-2,5-dihydro-3-((((1-methylethyl)amino)carbonyl)amino)-2-oxo-1H-1,4-benzodiazepine-1-acetic acid ethyl ester], the IC50 in assay [1] (setting [3]) is more than 300 nM; at CCK receptor (pancreas) (IC50 ^125 I-CCK Pancreas) it was 35000 nM; in assay [2] (setting [5]), 33000 nM.
In the case of `CN1C(=O)[C@H](NC(=O)c2ccc(C(F)(F)F)cc2)N=C(c2ccccc2)c2ccccc21` [Example 207, (R)-N-(2,3-Dihydro-1-methyl-2-oxo-5-phenyl-1H-1,4-benzodiazepin-3-yl)-4-(trifluoromethyl)-benzamide], the results for the IC50 (in assay [1] (IC50 ^125 I-CCK Brain); on CCK receptor (pancreas) (setting [4]); in assay [2] (setting [5])) were 3300 nM, 115000 nM and 4200 nM, respectively.
As to `O=C(Nc1ccc(Cl)cc1)NC1N=C(c2ccccc2)c2ccccc2N(CC(=O)OCc2ccccc2)C1=O` (stereo not drawn) [Example 208, 3-((((4-Chlorophenyl)amino)carbonyl)amino)-2,3-dihydro-2-oxo-5-phenyl-1H-1,4-benzodiazepine-1-acetic acid phenylmethyl ester], the IC50 was determined as 44 nM in assay [1] (setting [3]), 1300 nM on CCK receptor (pancreas) (setting [4]) and 140 nM in assay [2] (setting [5]).
`CCOC(=O)CN1C(=O)C(NC(=O)OCc2ccccc2)N=C(c2ccccc2)c2ccccc21` (stereo not drawn) [Example 209, 2,3-Dihydro-2-oxo-5-phenyl-3-(((phenylmethoxy)carbonyl)amino)-1H-1,4-benzodiazepine-1-acetic acid ethyl ester]: the IC50 amounted to 300 nM in assay [1] (setting [3]), 2200 nM on CCK receptor (pancreas) (IC50 ^125 I-CCK Pancreas) and 300 nM in assay [2] (setting [5]).
For the molecule `CN1C(=O)[C@@H](Cc2c[nH]c3ccccc23)N=C(c2ccccc2)c2ccccc21` [Example 210, (R)-1,3-Dihydro-3-(1H-indol-3-ylmethyl)-1-methyl-5-phenyl-2H-1,4-benzodiazepin-2-one], the half-inhibitory concentration (IC50) in assay [1] (IC50 ^125 I-CCK Brain) worked out at 10000 nM; at CCK receptor (pancreas) (IC50 ^125 I-CCK Pancreas) it was 300 nM; in assay [2] (setting [6]), 21000 nM.
For `O=C(CN1C(=O)C(NC(=O)OCc2ccccc2)N=C(c2ccccc2)c2ccccc21)NCc1ccccc1` (stereo not drawn) [Example 212, (2,3-Dihydro-2-oxo-1-(2-oxo-2-((phenylmethyl)amino)ethyl)-5-phenyl-1H-1,4-benzodiazepin-3-yl)-carbamic acid phenylmethyl ester], the IC50 in assay [1] (setting [3]) was 400 nM; on CCK receptor (pancreas) (IC50 ^125 I-CCK Pancreas) it was 1900 nM; in assay [2] (setting [5]), 600 nM.
The matching figures for `CCCCNC(=O)CN1C(=O)C(NC(=O)OCc2ccccc2)N=C(c2ccccc2)c2ccccc21` (stereo not drawn) [Example 213, {2,3-Dihydro-2-oxo-1-[2-oxo-2-(butylamino)ethyl]-5-phenyl-1H-1,4-benzodiazepin-3-yl}-carbamic acid phenylmethyl ester]: 380 nM, 2100 nM and 280 nM.
Consider `CCOC(=O)CN1C(=O)C(NC(=O)c2cc3ccccc3[nH]2)N=C(c2ccccc2F)c2ccccc21` (stereo not drawn) [Example 214, 5-(2-Fluorophenyl)-2,3-dihydro-3-((1H-indol-2-ylcarbonyl)amino)-2-oxo-1H-1,4-benzodiazepine-1-acetic acid ethyl ester], for which the values for the IC50 (in assay [1] (IC50 ^125 I-CCK Brain); at CCK receptor (pancreas) (setting [4]); in assay [2] (setting [6])) were 220 nM, 3 nM and 120 nM, respectively.
For `CCNC(=O)CN1C(=O)C(NC(=O)OCc2ccccc2)N=C(c2ccccc2)c2ccccc21` (stereo not drawn) [Example 215], the results for the IC50 (in assay [1] (setting [3]); at CCK receptor (pancreas) (IC50 ^125 I-CCK Pancreas); in assay [2] (setting [5])) were 1800 nM, 4800 nM and 560 nM, respectively.
